Measured values reported in paper PMC9854566, “Antiamnesic Effects of Feralolide Isolated from Aloe vera Resin Miller against Learning Impairments Induced in Mice” (Antioxidants, 2023).

Legend:
[1] = molecular target: acetylcholinesterase (AChE), electric eel, type VI-S (Electrophorus electricus, UniProt O42275); assay: Ellman spectrophotometric assay ([…] nm); format: biochemical
[2] = molecular target: T1, butyrylcholinesterase (BuChE), equine (Equus caballus, UniProt P81908); assay: Ellman spectrophotometric assay ([…] nm); format: biochemical
T1 construct: gene BCHE
T1 sequence (P81908 whole entry): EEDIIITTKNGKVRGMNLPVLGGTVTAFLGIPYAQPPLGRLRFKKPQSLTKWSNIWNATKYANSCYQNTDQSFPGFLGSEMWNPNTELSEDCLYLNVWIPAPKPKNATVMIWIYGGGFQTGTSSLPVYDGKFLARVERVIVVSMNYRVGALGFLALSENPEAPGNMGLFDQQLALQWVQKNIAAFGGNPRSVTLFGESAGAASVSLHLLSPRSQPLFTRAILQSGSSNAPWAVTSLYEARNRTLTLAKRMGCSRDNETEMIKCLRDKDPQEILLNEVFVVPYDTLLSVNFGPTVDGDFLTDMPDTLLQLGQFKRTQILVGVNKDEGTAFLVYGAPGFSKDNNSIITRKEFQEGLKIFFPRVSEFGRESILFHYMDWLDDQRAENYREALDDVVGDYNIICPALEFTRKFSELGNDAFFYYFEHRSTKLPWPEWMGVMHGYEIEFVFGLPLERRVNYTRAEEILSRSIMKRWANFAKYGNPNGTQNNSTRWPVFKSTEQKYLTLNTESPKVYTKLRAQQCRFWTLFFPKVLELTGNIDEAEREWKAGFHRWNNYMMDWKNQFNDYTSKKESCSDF

Sequence of acetylcholinesterase (AChE), electric eel, type VI-S (O42275 24-633): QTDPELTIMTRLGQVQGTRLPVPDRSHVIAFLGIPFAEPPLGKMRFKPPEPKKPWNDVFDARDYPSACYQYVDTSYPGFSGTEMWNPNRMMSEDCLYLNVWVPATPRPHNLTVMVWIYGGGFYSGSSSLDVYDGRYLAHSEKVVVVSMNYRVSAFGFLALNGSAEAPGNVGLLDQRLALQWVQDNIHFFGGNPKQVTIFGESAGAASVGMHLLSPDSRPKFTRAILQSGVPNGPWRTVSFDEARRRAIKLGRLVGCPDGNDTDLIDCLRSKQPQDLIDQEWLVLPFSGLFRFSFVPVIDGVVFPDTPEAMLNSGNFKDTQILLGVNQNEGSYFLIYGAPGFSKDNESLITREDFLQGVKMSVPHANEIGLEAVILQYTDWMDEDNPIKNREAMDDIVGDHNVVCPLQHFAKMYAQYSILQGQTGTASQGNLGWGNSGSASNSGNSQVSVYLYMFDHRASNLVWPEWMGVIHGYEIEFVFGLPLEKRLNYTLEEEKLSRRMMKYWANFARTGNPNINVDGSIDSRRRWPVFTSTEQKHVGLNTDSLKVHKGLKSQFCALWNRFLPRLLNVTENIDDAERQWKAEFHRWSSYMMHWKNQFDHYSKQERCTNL

CC(=O)c1c(O)cc(O)cc1C[C@@H]1Cc2cc(O)cc(O)c2C(=O)O1 [feralolide]
IC50 [1]: 160 µM
IC50 [2]: 151 µM
